Test results from ChEMBL document CHEMBL1649353, “Spectroscopic characterization and antiproliferative activity on HepG2 human hepatoblastoma cells of flavonoid C-glycosides from Petrorhagia velutina” (2010).
The source made the active and inactive calls. The calls are words filed in the database; no cut-off is given here.

Columns and labels:
HepG2 [1] = assay: Antiproliferative activity against human HepG2 cells at 25 uM after 48 hrs by MTT assay; format: functional
HepG2 [2] = assay: Antiproliferative activity against human HepG2 cells at 6.25 to 50 uM after 48 hrs by MTT assay; format: functional, cell-based
HepG2 [3] = assay: Antiproliferative activity against human HepG2 cells at 6.25 to 50 uM after 24 hrs by MTT assay; format: functional, cell-based
HepG2 [4] = assay: Antiproliferative activity against human HepG2 cells at 6.25 uM after 48 hrs by MTT assay; format: functional
HepG2 [5] = assay: Antiproliferative activity against human HepG2 cells at 12.5 uM after 48 hrs by MTT assay; format: functional
HepG2 [6] = assay: Antiproliferative activity against human HepG2 cells at 25 uM after 24 hrs by MTT assay; format: functional
HepG2 [7] = assay: Antiproliferative activity against human HepG2 cells at 6.25 uM after 24 hrs by MTT assay; format: functional

C[C@@H]1O[C@@H](O[C@@H]2[C@@H](O)[C@H](O)[C@@H](CO)O[C@H]2c2c(O)cc3oc(-c4ccc(O)c(O)c4)cc(=O)c3c2O)[C@H](O)[C@H](O)[C@H]1O
Activity (HepG2 [1]): 74.9%

C[C@@H]1O[C@@H](O[C@@H]2[C@@H](O)[C@@H](O)CO[C@H]2c2c(O)cc3oc(-c4ccc(O)c(O)c4)cc(=O)c3c2O)[C@H](O)[C@H](O)[C@H]1O
Activity (HepG2 [2]): Active

O=C1C[C@@H](c2ccc(O)cc2)Oc2c1c(O)cc(O[C@@H]1O[C@H](CO)[C@@H](O)[C@H](O)[C@H]1O)c2[C@@H]1OC[C@H](O)[C@H](O)[C@H]1O
Activity (HepG2 [3]): inactive

O=c1cc(-c2ccc(O)c(O)c2)oc2cc(O)c([C@@H]3O[C@H](CO)[C@@H](O)[C@H](O)[C@H]3O)c(O)c12 [ISOORIENTIN]
Activity (HepG2 [4]): 84%
Activity (HepG2 [5]): 92%
Activity (HepG2 [6]): 26.1%
Activity (HepG2 [7]): 19.6%
